The results in this text go back to the OligoGym collection.

“And” between values parts separate entries of the source, which are not always exact repeats. Identical values can stand only once. After the bases stand the sugars from the 5' end (letter, count) and the backbone: PS all phosphorothioate, else s phosphorothioate and o phosphodiester by linkage. Methylation of C is not given here. k = constrained ethyl (cEt); d = 2'-deoxy (DNA)

This data set deals with MALAT1. The conditions noted are these: ASO, A431, 0.005 µM.
For the sequence TATCTGTTAACAGCTG (sugars k3 d10 k3, PS), the target mRNA inhibition was determined as 41%. The value for TATGAACCAAAGCTGC (sugars k3 d10 k3, PS) was 7%. Regarding TATGAGCTTCAGACCT (sugars k3 d10 k3, PS), the target mRNA inhibition was -9%. As for TATGGATCATGCCCAC (sugars k3 d10 k3, PS), the figure is 27%; as for TCAACCTCCGTCATGT (sugars k3 d10 k3, PS), 32%. As for TCAAGCACCGCTTGAG (sugars k3 d10 k3, PS), the figure is -12% and 8%; as for TCAAGTGGCCTTTTAA (sugars k3 d10 k3, PS), -38%; as for TCAATAGTACTATAGC (sugars k3 d10 k3, PS), 25%.

As to TCAATCCACTTGATCC (sugars k3 d10 k3, PS), the target mRNA inhibition came out at 14%. On to TCAATTAATGCTAGTC (sugars k3 d10 k3, PS), for which the target mRNA inhibition was 35%.

Turning to TCACAAATACGACTGC (sugars k3 d10 k3, PS), the target mRNA inhibition worked out at 23%.

On to TCACTACTCCAAGCAT (sugars k3 d10 k3, PS), for which the target mRNA inhibition came out at 21%. As to TCAGGATCATTAAGCC (sugars k3 d10 k3, PS), the target mRNA inhibition was determined as 37%. As for TCATAATCTCCCACCT (sugars k3 d10 k3, PS), the figure is 10%; as for TCATCAACAAAAGCCC (sugars k3 d10 k3, PS), -8%; as for TCATTAAGCCACTTCC (sugars k3 d10 k3, PS), 19%. The value for TCATTACCCCAACTAA (sugars k3 d10 k3, PS) was 17%.

On to TCCAATACTTGTCTTA (sugars k3 d10 k3, PS), for which the target mRNA inhibition was 68% and 75%. The value for TCCATGGTTGTCCTAC (sugars k3 d10 k3, PS) was 35%.

In the case of TCCCATAATTGTAGTT (sugars k3 d10 k3, PS), the target mRNA inhibition stood at 27%. As for TCCCCCAACTGCTTGC (sugars k3 d10 k3, PS), the figure is 11%; as for TCCCCCATTATATTAG (sugars k3 d10 k3, PS), 14%; as for TCCCGTACTTCTGTCT (sugars k3 d10 k3, PS), 41%. For the sequence TCCCTAACATGCAATA (sugars k3 d10 k3, PS), the target mRNA inhibition is 30%.

As to TCCCTGTTAAGACCAT (sugars k3 d10 k3, PS), the target mRNA inhibition worked out at 27%. As for TCCCTTCAGGATCATT (sugars k3 d10 k3, PS), the figure is 10%; as for TCCGTAACTTTAAATT (sugars k3 d10 k3, PS), 36%. The value for TCCTATCTTCACCACG (sugars k3 d10 k3, PS) was 40%; that for TCCTCTACGCACAACG (sugars k3 d10 k3, PS) was 11%.

For the sequence TCCTGAAAGTGCTCAC (sugars k3 d10 k3, PS), the target mRNA inhibition was -7%. As for TCCTGAAATCCCCTAG (sugars k3 d10 k3, PS), the figure is -12%; as for TCCTGACAAATTATAC (sugars k3 d10 k3, PS), 28%. As to TCGGTTTAATCTCTTT (sugars k3 d10 k3, PS), the target mRNA inhibition is 63% and 73%. As for TCTAAATTGGTTCTGG (sugars k3 d10 k3, PS), the figure is 55% and 64%; as for TCTAACCCAGTTTGTC (sugars k3 d10 k3, PS), 31%.

With TCTAGGATCCTCTACG (sugars k3 d10 k3, PS), the target mRNA inhibition was -24%. The value for TCTAGGCCATCATACT (sugars k3 d10 k3, PS) was 40%; that for TCTCAACCTCCGTCAT (sugars k3 d10 k3, PS) was 27%; that for TCTCTTGAGGGACAGT (sugars k3 d10 k3, PS) was -7%.

Regarding TCTGAGTGAAGTGTAC (sugars k3 d10 k3, PS), the target mRNA inhibition was 34%. TCTGATTATCCTGATA (sugars k3 d10 k3, PS): the target mRNA inhibition is 11%. Consider TCTGTGTTATGCCTGG (sugars k3 d10 k3, PS), for which the target mRNA inhibition was determined as 17%. The value for TCTGTTACACCTTGAG (sugars k3 d10 k3, PS) was 48% and 64%. As for TCTGTTATGTTCACCT (sugars k3 d10 k3, PS), the figure is 52%; as for TCTTAGTAACCTATTG (sugars k3 d10 k3, PS), 19%. In the case of TCTTCCGCTCAAATCC (sugars k3 d10 k3, PS), the target mRNA inhibition was 41%.

TCTTGAGGGACAGTAG (sugars k3 d10 k3, PS): the target mRNA inhibition is -7%.

Consider TGAAACCGATTATGGA (sugars k3 d10 k3, PS), for which the target mRNA inhibition was 3%.

On to TGAAAGAACTAGTGGT (sugars k3 d10 k3, PS), for which the target mRNA inhibition is 23%.

Regarding TGAACCAAAGCTGCAC (sugars k3 d10 k3, PS), the target mRNA inhibition is 2%.

As to TGAACCGGAGCAGGAA (sugars k3 d10 k3, PS), the target mRNA inhibition was 5%. The value for TGACACTTTCCTTGCC (sugars k3 d10 k3, PS) was 66% and 46%; that for TGAGGCAAACGAAACA (sugars k3 d10 k3, PS) was 16%; that for TGAGGCAAGTCCTCAT (sugars k3 d10 k3, PS) was 5%. The value for TGAGTATAAGCCTGAA (sugars k3 d10 k3, PS) was 25%. The value for TGATCTGCGGCCCCCC (sugars k3 d10 k3, PS) was -50%; that for TGATTTTAAGGTTGCA (sugars k3 d10 k3, PS) was 70% and 67%; that for TGCAATACTGCAGATG (sugars k3 d10 k3, PS) was 20%. Take TGCAGGGACGGTTGAG (sugars k3 d10 k3, PS): the target mRNA inhibition is -22%. As for TGCAGTCCTGCGACTT (sugars k3 d10 k3, PS), the figure is 15%. For the sequence TGCAGTTTCTATAGTA (sugars k3 d10 k3, PS), the target mRNA inhibition worked out at 9%. In the case of TGCCAACAGCACAGCG (sugars k3 d10 k3, PS), the target mRNA inhibition came out at 1%. The value for TGCCATCTACTATTTC (sugars k3 d10 k3, PS) was 19%.

As to TGCCTACCGCACAGCT (sugars k3 d10 k3, PS), the target mRNA inhibition worked out at 19%. On to TGCGACTTGCTCCCAA (sugars k3 d10 k3, PS), for which the target mRNA inhibition was -13%.

For TGCGGCCCCCCAGTTG (sugars k3 d10 k3, PS), the target mRNA inhibition is -6%.

With TGCTAGCTTGGCCAAG (sugars k3 d10 k3, PS), the target mRNA inhibition stood at 16%. The value for TGCTAGTCCTCAGGAT (sugars k3 d10 k3, PS) was 19%.

As for TGCTCCCCGCCTGAGC (sugars k3 d10 k3, PS), the target mRNA inhibition was found to be 24%. Regarding TGCTTATTCCCCAATG (sugars k3 d10 k3, PS), the target mRNA inhibition came to 52%.

Consider TGCTTGGGAAATCTTA (sugars k3 d10 k3, PS), for which the target mRNA inhibition came to 23%.
